Measurements published in ChEMBL document CHEMBL4385643, “Design of a brain-penetrant CDK4/6 inhibitor for glioblastoma” (Bioorg Med Chem Lett, 2019).

Tests used:
[1] = target: Wee1-like protein kinase (Homo sapiens) (UniProt P30291); assay: Inhibition of tracer 178 binding to recombinant full length human GST-tagged WEE1 expressed in baculovirus expression system at 0.1 uM measured after 60 mins by Lanthascreen assay relative to control
[2] = target: Homeodomain-interacting protein kinase 2 (Homo sapiens) (UniProt Q9H2X6); assay: Inhibition of recombinant full length human GST-tagged HIPK2 expressed in baculovirus expression system at 0.1 uM using serine/threonine-9 peptide as substrate incubated for 60 mins by Z'-LYTE assay relative to control
Homo sapiens = species: Homo sapiens; assay: Inhibition of recombinant human His-tagged PKA catalytic domain (1 to 351 residues) expressed in Escherichia coli expression system at 0.1 uM using serine/threonine-1 peptide as substrate incubated for 60 mins by Z'-LYTE assay relative to control
in vivo [3] = conditions: CD-1, mouse, brain, po, 25 mg/kg
Description: Protein binding in CD-1 mouse brain at 25 mg/kg, po measured upto 6 hours by LC-MS/MS analysis

[4] = target: Fibroblast growth factor receptor 3 (Homo sapiens) (UniProt P22607); assay: Inhibition of recombinant human His-tagged FGFR3 catalytic domain (399 to 806 residues) expressed in baculovirus expression system at 0.1 uM using tyrosine-4 peptide as substrate incubated for 60 mins by Z'-LYTE assay relative to control
[5] = target: Fibroblast growth factor receptor 1 (Homo sapiens) (UniProt P11362); assay: Inhibition of recombinant human His-tagged FGFR1 catalytic domain (308 to 731 residues) expressed in baculovirus expression system at 0.1 uM using tyrosine-4 peptide as substrate incubated for 60 mins by Z'-LYTE assay relative to control
in vivo [6] = conditions: CD-1, mouse, iv, 1 mg/kg
Description: Volume of distribution at steady state in CD-1 mouse at 1.0 mg/kg, iv measured upto 6 hours by LC-MS/MS analysis

[7] = target: Cyclin-Y/Cyclin-dependent kinase 16 (Homo sapiens) (UniProt Q00536+Q8ND76); assay: Inhibition of tracer 236 binding to recombinant human GST-tagged CDK16/cyclin Y catalytic domain (CDK16: 108 to end, Cyclin Y: 2 to end) expressed by baculovirus in Sf9 insect cells expression system at 0.1 uM measured after 60 mins by Lanthascreen assay relative to control
[8] = target: Ephrin type-A receptor 1 (Homo sapiens) (UniProt P21709); assay: Inhibition of recombinant human GST-tagged EPHA1 (568 to 976 residues) expressed in baculovirus expression system at 0.1 uM using tyrosine-2 peptide as substrate incubated for 60 mins by Z'-LYTE assay relative to control
[9] = Plasma to brain permeability coefficient, Kp of the unbound compound in CD-1 mouse at 1.0 mg/kg, iv measured at 6 hrs post dose by LC/MS/MS analysis; format: ADME, organism-based; conditions: read-out: K(p,uu,brain)
[10] = target: Cyclin-dependent kinase 1/cyclin B1 (Homo sapiens) (UniProt P06493+P14635); conditions: at 0.1 µM
Description: Inhibition of recombinant full length human His-tagged CDK1/CyclinB expressed in baculovirus expression system at 0.1 uM using serine/threonine-18 peptide as substrate incubated for 60 mins by Z'-LYTE assay relative to control

[11] = target: cGMP-dependent protein kinase 1 (Homo sapiens) (UniProt Q13976); assay: Inhibition of recombinant full length human GST-tagged PKG1 alpha expressed in baculovirus expression system at 0.1 uM using CREBtide as substrate 60 mins by Lanthascreen assay relative to control
CDK4/Cyclin D3 = CDK4/Cyclin D3 (Homo sapiens, UniProt P11802)
Description: Inhibition of human full length GST-tagged CDK4 (1 to 303(end) amino acids)/Cyclin D3 (1 to 292(end) amino acids) expressed in baculovirus expression system assessed as inhibition constant using Ulight-4E-BP1 as substrate preincubated for 30 mins followed by substrate addition and incubated for 90 mins by TR-FRET assay

[12] = target: Myosin light chain kinase (Homo sapiens) (UniProt Q32MK0); assay: Inhibition of tracer 236 binding to recombinant full length human GST-tagged MYLK3 expressed in baculovirus expression system at 0.1 uM measured after 60 mins by Lanthascreen assay relative to control
[13] = target: Tyrosine-protein kinase Tec (Homo sapiens) (UniProt P42680); assay: Inhibition of tracer 178 binding to recombinant full length human His-tagged TEC expressed in baculovirus expression system at 0.1 uM measured after 60 mins by Lanthascreen assay
[14] = target: NUAK family SNF1-like kinase 1 (Homo sapiens) (UniProt O60285); assay: Inhibition of recombinant full length human His-tagged ARK5 expressed in baculovirus expression system at 0.1 uM using CHKtide peptide as substrate incubated for 60 mins by Adapta assay relative to control
[15] = Lipophilicity, log D of the compound by microscale shake flask method; format: physicochemical; conditions: octanol/water
[16] = target: Glycogen synthase kinase-3 alpha (Homo sapiens) (UniProt P49840); assay: Inhibition of recombinant full length human GST-tagged GSK3alpha expressed in baculovirus expression system at 0.1 uM using serine/threonine-9 peptide as substrate incubated for 60 mins by Z'-LYTE assay relative to control
[17] = target: Dual specificity protein kinase CLK2 (Homo sapiens) (UniProt P49760); assay: Inhibition of recombinant human GST-tagged CLK2 catalytic domain (137 to 498 residues) expressed in Baculovirus expression system at 0.1 uM using serine/threonine-6 peptide as substrate incubated for 60 mins by Z'-LYTE assay relative to control
in vivo [18] = conditions: CD-1, mouse, iv, 1 mg/kg; remark: listed apart in the source
Description: Half life in CD-1 mouse at 1.0 mg/kg, iv measured upto 6 hours by LC-MS/MS analysis

[19] = target: Glycogen synthase kinase-3 beta (Homo sapiens) (UniProt P49841); assay: Inhibition of recombinant full length human His-tagged GSK3beta expressed in baculovirus expression system at 0.1 uM using serine/threonine-9 peptide as substrate incubated for 60 mins by Z'-LYTE assay relative to control
[20] = target: Tyrosine-protein kinase Fes/Fps (Homo sapiens) (UniProt P07332); assay: Inhibition of recombinant full length human His-tagged FES (FPS) expressed in baculovirus expression system at 0.1 uM using tyrosine-1 peptide as substrate incubated for 60 mins by Z'-LYTE assay relative to control
[21] = target: CDK2/Cyclin A2 (Homo sapiens) (UniProt P24941+P20248); conditions: at 0.1 µM
Description: Inhibition of recombinant full length human His-tagged CDK2/Cyclin A expressed in baculovirus expression system at 0.1 uM using serine/threonine-12 peptide as substrate incubated for 60 mins by Z'-LYTE assay relative to control

[22] = target: Mitogen-activated protein kinase kinase kinase kinase 5 (Homo sapiens) (UniProt Q9Y4K4); assay: Inhibition of recombinant full length human GST-tagged KHS1 expressed in baculovirus expression system at 0.1 uM using serine/threonine-7 peptide as substrate incubated for 60 mins by Z'-LYTE assay relative to control
[23] = target: Dual specificity mitogen-activated protein kinase kinase 6 (Homo sapiens) (UniProt P52564); assay: Inhibition of recombinant full length human His-tagged MKK6 expressed in baculovirus expression system at 0.1 uM using serine/threonine-3 peptide as substrate incubated for 60 mins by Z'-LYTE assay relative to control
[24] = target: Dual specificity tyrosine-phosphorylation-regulated kinase 3 (Homo sapiens) (UniProt O43781); assay: Inhibition of recombinant full length human GST-tagged DYRK3 expressed in baculovirus expression system at 0.1 uM using serine/threonine-9 peptide as substrate incubated for 60 mins by Z'-LYTE assay relative to control
[25] = target: Serine/threonine-protein kinase 26 (Homo sapiens) (UniProt Q9P289); assay: Inhibition of recombinant full length human GST-tagged MST4 expressed in baculovirus expression system at 0.1 uM using serine/threonine-7 peptide as substrate incubated for 60 mins by Z'-LYTE assay relative to control
[26] = Unbound brain to plasma ratio in Sprague-Dawley rat at 30 mg/kg, po after 48 hrs by LC-MS/MS analysis; format: ADME, organism-based; conditions: read-out: K(p,uu,brain)

Sequence of cGMP-dependent protein kinase 1 (Homo sapiens) (Q13976 whole entry): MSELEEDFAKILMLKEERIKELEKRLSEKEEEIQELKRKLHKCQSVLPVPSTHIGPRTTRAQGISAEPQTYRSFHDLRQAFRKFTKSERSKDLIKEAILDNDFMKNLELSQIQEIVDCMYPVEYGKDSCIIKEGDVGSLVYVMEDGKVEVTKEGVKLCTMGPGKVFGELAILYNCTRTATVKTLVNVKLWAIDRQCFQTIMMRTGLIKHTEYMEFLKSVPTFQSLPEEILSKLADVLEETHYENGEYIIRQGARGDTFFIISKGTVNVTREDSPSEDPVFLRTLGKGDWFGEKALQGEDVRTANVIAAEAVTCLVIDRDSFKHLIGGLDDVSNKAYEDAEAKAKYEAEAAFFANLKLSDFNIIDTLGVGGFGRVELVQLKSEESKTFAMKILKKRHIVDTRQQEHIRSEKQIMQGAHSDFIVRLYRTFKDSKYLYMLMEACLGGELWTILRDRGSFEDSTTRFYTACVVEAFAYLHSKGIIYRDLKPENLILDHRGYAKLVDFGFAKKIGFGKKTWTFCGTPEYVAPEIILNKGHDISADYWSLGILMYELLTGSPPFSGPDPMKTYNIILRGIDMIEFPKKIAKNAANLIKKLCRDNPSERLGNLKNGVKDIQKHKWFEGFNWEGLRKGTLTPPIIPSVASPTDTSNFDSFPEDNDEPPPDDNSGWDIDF
Sequence of Fibroblast growth factor receptor 1 (Homo sapiens) (P11362 22-822 limits assumed): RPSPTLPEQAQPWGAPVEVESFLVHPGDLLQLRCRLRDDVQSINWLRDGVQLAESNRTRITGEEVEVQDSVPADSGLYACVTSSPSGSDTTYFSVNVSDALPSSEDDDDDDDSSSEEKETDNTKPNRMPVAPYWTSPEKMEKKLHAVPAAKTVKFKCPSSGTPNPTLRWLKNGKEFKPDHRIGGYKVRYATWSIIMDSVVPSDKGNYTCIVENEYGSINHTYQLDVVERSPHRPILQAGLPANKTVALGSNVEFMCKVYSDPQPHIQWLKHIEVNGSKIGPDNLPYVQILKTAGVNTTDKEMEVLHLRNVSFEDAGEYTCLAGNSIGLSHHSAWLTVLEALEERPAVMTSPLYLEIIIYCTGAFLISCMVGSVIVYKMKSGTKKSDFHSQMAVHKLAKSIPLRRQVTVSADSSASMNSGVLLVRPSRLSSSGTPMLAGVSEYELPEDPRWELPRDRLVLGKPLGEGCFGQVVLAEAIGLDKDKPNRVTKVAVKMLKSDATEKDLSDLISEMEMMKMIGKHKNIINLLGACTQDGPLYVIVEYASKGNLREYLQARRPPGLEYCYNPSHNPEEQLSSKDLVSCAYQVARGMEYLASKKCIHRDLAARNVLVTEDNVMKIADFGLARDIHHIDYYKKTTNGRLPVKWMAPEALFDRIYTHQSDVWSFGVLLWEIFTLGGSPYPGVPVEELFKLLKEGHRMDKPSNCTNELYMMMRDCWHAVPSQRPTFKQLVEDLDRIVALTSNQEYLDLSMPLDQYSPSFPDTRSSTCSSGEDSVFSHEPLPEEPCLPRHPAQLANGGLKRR
Sequence of Tyrosine-protein kinase Tec (Homo sapiens) (P42680 whole entry): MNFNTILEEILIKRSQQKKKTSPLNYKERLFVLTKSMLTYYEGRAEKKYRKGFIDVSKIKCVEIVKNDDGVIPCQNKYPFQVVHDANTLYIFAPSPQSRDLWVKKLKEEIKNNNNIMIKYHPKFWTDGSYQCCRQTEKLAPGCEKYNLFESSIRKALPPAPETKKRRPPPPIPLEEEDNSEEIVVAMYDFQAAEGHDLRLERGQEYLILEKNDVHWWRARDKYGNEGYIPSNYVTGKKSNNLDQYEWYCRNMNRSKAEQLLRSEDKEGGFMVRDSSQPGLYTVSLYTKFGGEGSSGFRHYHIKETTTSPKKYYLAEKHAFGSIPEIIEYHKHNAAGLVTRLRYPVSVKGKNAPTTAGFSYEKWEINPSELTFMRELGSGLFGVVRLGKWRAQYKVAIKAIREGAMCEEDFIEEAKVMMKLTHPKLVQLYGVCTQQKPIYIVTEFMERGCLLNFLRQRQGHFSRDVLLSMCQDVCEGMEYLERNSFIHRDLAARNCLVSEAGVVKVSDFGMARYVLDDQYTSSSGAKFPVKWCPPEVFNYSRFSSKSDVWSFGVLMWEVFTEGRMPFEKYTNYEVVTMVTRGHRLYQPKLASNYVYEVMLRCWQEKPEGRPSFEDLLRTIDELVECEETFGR
Sequence of Dual specificity mitogen-activated protein kinase kinase 6 (Homo sapiens) (P52564 whole entry): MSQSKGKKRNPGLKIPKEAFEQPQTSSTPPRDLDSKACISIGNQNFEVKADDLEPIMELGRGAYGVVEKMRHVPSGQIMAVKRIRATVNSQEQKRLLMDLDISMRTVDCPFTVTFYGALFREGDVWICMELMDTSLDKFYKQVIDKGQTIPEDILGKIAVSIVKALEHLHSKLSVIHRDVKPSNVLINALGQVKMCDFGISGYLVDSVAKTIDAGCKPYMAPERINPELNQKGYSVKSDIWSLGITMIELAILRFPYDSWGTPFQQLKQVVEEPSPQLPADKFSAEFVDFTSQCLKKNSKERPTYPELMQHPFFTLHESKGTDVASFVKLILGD
Sequence of Myosin light chain kinase (Homo sapiens) (Q32MK0 whole entry): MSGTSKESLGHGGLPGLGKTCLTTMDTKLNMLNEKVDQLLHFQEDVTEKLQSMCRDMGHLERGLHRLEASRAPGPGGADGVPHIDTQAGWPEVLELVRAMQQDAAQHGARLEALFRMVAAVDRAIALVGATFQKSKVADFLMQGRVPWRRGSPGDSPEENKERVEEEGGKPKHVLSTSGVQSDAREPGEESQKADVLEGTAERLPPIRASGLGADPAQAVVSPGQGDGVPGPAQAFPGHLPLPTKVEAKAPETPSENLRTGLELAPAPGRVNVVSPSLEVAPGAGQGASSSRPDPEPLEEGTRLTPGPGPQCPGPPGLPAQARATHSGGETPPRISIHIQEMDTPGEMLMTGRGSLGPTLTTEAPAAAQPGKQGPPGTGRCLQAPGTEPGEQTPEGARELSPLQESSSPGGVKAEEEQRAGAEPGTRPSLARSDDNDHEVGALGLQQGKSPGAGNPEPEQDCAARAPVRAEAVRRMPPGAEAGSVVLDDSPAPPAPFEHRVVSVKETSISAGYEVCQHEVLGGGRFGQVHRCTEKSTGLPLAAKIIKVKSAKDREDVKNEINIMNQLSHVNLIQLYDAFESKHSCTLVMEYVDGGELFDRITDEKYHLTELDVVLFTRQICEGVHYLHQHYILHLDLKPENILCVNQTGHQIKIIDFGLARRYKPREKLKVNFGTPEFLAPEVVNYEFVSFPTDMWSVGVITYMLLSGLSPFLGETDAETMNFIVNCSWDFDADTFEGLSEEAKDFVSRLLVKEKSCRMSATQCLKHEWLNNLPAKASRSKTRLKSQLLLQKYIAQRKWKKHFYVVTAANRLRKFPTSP
Sequence of Tyrosine-protein kinase Fes/Fps (Homo sapiens) (P07332 whole entry): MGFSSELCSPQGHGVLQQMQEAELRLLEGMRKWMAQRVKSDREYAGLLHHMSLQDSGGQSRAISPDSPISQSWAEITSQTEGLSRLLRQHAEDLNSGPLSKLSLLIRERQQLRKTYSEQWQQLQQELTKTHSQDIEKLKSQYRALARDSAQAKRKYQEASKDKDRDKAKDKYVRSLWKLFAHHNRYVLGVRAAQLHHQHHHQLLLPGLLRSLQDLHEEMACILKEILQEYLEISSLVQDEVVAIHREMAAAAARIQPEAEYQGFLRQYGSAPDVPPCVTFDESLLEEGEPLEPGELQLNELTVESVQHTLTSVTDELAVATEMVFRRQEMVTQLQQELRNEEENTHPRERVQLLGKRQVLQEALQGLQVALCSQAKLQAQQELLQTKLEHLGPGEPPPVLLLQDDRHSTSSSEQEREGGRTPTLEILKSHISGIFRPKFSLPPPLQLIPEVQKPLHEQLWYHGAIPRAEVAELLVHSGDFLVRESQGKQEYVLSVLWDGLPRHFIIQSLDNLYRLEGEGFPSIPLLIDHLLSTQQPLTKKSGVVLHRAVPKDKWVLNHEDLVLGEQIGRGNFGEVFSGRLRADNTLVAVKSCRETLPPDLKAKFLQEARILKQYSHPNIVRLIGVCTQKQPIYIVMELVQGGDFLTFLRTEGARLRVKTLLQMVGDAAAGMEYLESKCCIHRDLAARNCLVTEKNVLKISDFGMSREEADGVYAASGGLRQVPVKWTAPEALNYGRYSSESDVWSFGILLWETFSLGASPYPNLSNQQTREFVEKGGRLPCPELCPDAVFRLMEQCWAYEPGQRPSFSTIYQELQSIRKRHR
Sequence of Mitogen-activated protein kinase kinase kinase kinase 5 (Homo sapiens) (Q9Y4K4 whole entry, looked up): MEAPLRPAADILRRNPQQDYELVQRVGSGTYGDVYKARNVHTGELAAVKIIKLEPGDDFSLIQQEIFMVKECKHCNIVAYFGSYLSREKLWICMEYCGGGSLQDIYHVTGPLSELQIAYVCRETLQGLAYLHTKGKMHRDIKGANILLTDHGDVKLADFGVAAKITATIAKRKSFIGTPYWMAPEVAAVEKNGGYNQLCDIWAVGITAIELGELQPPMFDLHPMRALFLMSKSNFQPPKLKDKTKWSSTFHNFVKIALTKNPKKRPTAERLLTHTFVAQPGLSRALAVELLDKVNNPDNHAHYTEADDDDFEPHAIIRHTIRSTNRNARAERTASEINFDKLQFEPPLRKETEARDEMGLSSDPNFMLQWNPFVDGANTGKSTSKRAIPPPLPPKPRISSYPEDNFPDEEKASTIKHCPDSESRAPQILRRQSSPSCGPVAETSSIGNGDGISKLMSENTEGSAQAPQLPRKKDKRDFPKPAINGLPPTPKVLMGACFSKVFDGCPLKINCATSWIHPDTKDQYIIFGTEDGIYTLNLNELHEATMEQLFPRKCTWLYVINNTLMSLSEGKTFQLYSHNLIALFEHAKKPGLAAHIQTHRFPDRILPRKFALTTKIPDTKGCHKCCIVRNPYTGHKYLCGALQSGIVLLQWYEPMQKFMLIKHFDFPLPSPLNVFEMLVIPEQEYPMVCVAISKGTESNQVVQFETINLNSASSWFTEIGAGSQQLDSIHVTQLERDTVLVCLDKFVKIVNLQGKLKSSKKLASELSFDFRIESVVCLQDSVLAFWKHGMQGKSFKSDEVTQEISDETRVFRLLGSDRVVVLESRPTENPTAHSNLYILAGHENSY

Compound	inhibition [1] [%]	inhibition (Homo sapiens) [%]	inhibition [4] [%]	inhibition [5] [%]	inhibition [7] [%]	inhibition [8] [%]	inhibition [11] [%]	inhibition [12] [%]	inhibition [13] [%]	inhibition [14] [%]	inhibition [20] [%]	inhibition [22] [%]	inhibition [23] [%]	also measured
CCN1CC2(C1)CN(c1ccc(Nc3ncc(F)c(-c4cnn5c4[C@H](C)CCCC5)n3)nc1)C2	11	4	1.5	-4	79	9.5	6	19.5	5	92	19	22	0	inhibition [2]: 26%; fraction unbound at 6 h (in vivo [3]): 0.009; Vd at 6 h (in vivo [6]): 6.2 L/kg; Kp uu at 6 h [9]: 0.28; inhibition [10]: 52.5%; Ki (CDK4/Cyclin D3): < 0.3 nM; logD [15]: 2.1; inhibition [16]: 33%; inhibition [17]: 98%; half-life at 6 h (in vivo [18]): 54 min; inhibition [19]: 30.5%; inhibition [21]: 86.5%; inhibition [24]: 34%
CCN1CCN(Cc2ccc(Nc3ncc(F)c(-c4cc(F)c5nc(C)n(C(C)C)c5c4)n3)nc2)CC1 [ABEMACICLIB]	5.5	5	0	-0.4	86.5	8	1.5	30.8	0.8	22.7	11	27.3	14.3	inhibition [25]: -2%; Kp uu at 48 h [26]: 0.11
